Data from patent US20030130698A1, “Method for screening therapeutic agents for modulation of ejaculatory response” (priority 2002, published 2003).

Experiments:
[1] = test system: male mice; test: Electroejaculation test after oral administration of diarylmethylpiperazine compounds (35 Hz, 3 to 8 volts); format: in vivo, mouse; settings: for Effective Dose: oral administration, stimulation about 20 minutes after dosing, 3 to 8 volts in 0.5 volt increments; for Ejaculation Inhibition %: relative to control group, at the effective dose of the same line, oral, about 20 minutes after dosing, 3 to 8 volts
Method: (§1) Male, CD-1 mice (20-30 g) were housed in groups of ten (10) in Plexiglas® chambers with food and water available before any procedure. Animals were maintained on a 12 hour light/dark cycle in a temperature-controlled animal colony. Studies were carried out in accordance with the Guide for the Care and Use of Laboratory animals as adopted and promulgated by the National Institutes of Health.
(§2) Specifically, the bipolar electrode probe is an approximately 5 cm long tube having an outer diameter of approximately 0.2388 cm with an inner diameter of approximately 0.0787 cm and a wall thickness of […].
A testing mouse was restrained in a cone bag with rear legs extending from the bag. Excess fecal matter was removed from the rectum and a lubricated bipolar electrode was inserted approximately […] into the rectum. An oscillating current of 40 Hz was utilized for electrical stimulation starting at 3 volts with a gradual increase to 8 volts by increments of 0.5 volts, as shown in Table 1. The stimulation regime included 4 stimulating events for each voltage lasting 2 seconds with a rest period of 2 seconds between stimulating events. A white coagulum ejaculate from the penis indicated a successful ejaculation. If ejaculation occurred before reaching the 8 volt terminal voltage, the testing was stopped.
Further testing was conducted on a multiple diarylmethylpiperazine compounds according to the testing procedure setforth above wherein the stimulating protocol comprised multiple operating cycles of alternating stimulation periods and rest periods during which the operating voltage of each operating cycle increased in comparison with that of the immediately preceding operating cycle. Electroejaculation stimulation was conducted at 35 Hz oscillating frequency, starting at 3 volts with a gradual increase to 8 volts by increments of 0.5 volts and occurred about 20 minutes after oral administration. The results, showing ejaculation inhibition relative to that of the control group, are compiled in Table 2.

[2] = test system: male mice; test: Electroejaculation test after subcutaneous SNC-80 (40 Hz, 3 to 8 volts); format: in vivo, mouse; settings: terminal voltage 8 volts, FIG. 3
Method: as §1, §2
SNC-80 was dissolved in 5% dextrose injection solution. Equal molar of HCL was added when the manufacturer packaged the compound in a base form. The placebo was prepared in a similar manner without the test drug 10 minutes after the injection, the test mouse was subjected to electrostimulation. Ten mice were tested for each dose level, the order of each mouse receiving different doses was blinded and in a random manner.
A testing mouse was restrained in a cone bag with rear legs extending from the bag. Excess fecal matter was removed from the rectum and a lubricated bipolar electrode was inserted approximately 2.5 into the rectum. […]

[3] = target: delta opioid receptor (Homo sapiens, UniProt P41143); settings: delta opioid receptor agonist versus mu opioid receptors; cited from earlier work
[4] = test system: mouse vas deferens smooth muscle; settings: in vitro; cited from earlier work

delta opioid receptor, sequence (P41143 whole entry): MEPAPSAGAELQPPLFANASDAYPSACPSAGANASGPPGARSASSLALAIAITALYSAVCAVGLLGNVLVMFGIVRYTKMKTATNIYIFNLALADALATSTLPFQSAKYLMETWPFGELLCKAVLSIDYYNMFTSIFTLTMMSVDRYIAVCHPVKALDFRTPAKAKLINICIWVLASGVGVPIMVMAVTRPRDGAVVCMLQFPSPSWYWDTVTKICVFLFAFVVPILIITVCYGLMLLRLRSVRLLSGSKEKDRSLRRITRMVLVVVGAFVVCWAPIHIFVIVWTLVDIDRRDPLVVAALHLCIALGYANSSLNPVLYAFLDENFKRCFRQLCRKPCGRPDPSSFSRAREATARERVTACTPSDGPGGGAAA

SMILES | Effective Dose [1] [mg/kg] | Ejaculation Inhibition % [1] [%] | inhibitory effect on ejaculation at reduced dose ([2]; 0.1 mg/kg subcutaneous) | occurrence of ejaculation compared to control group ([2]; 1 mg/kg subcutaneous) | selectivity over mu opioid receptors [3] [fold] | contraction of mouse vas deferens smooth muscle [4]
CCN(CC)C(=O)c1ccc([C@H](c2ccccc2)N2C[C@@H](C)N(Cc3ccc(O)cc3)C[C@@H]2C)cc1 [4-((alpha-S)-alpha-((2S,5R)-2,5-Dimethyl-4-(4-hydroxybenzyl)-1-piperazinyl)-benzyl)-N,N-diethylbenzamide] | 3 | 50 | – | – | – | –
C=CCN1C[C@H](C)N([C@H](c2ccc(C(=O)N(CC)CC)cc2)c2cccc(OC)c2)C[C@H]1C [SNC-80, (+)-4-[(αR)-α-((2S,5R)-4-Allyl-2,5-dimethyl-1-piperazinyl)-3-methoxybenzyl]-N,N-diethyl benzamide] | – | – | inhibitory effect diminished | significantly reduced the occurrence of ejaculation | 2000 | block the contraction
CCN(CC)C(=O)c1ccc([C@H](c2cccc(OC)c2)N2C[C@@H](C)N(Cc3ccccc3F)C[C@@H]2C)cc1 [4-((alpha-R)-alpha-((2S,5R)-2,5-Dimethyl-4-(2-fluorobenzyl)-1-piperazinyl)-3-methoxybenzyl)-N,N-diethylbenzamide] | 10 | 50 | – | – | – | –
CCN(CC)C(=O)c1ccc([C@H](c2cccc(O)c2)N2C[C@@H](C)N(CC3CC3)C[C@@H]2C)cc1 [4-(alpha-R)-alpha-((2S,5R)-4-(Cyclopropylmethyl)-2,5-dimethyl-1-piperazinyl)-3-hydroxybenzyl)-N,N-diethylbenzamide] | 0.3 | 60 | – | – | – | –
CCN(CC)C(=O)c1ccc([C@H](c2cccc(OCC(=O)O)c2)N2C[C@@H](C)N(Cc3ccccc3)C[C@@H]2C)cc1 [3-((alpha-R)-alpha-((2S,5R)-4-Benzyl-2,5-dimethyl-1-piperazinyl)-4-(diethylaminocarbonyl)benzyl)phenoxyacetic acid] | 3 | 66 | – | – | – | –
CCN(CC)C(=O)c1ccc([C@H](c2cccc(OC)c2)N2C[C@@H](C)N(Cc3ccccc3)C[C@@H]2C)cc1 [4-(alpha-R)-alpha-((2S,5R)-4-Benzyl-2,5-dimethyl-1 piperazinyl)-3-methoxybenzyl)-N,N-diethylbenzamide] | 3 | 33 | – | – | – | –
C=CCN1C[C@H](C)N([C@H](c2ccc(C(=O)N(CC)CC)cc2)c2cccc(OCC(=O)O)c2)C[C@H]1C [3-((alpha-R)-alpha-((2S,5R)-4-Allyl-2,5-dimethyl-1-piperazinyl)-4-(diethylamino-carbonyl)benzyl)phenoxyacetic acid] | 0.01 | 45 | – | – | – | –
C=CCN1C[C@@H](C)N([C@H](c2ccc(S(=O)(=O)N(C)C)cc2)c2cccc(O)c2)C[C@@H]1C [4-[(R)-((2R,5S)-4-Allyl-2,5-diimethylpiperazin-1-yl)(3-hydroxyphenyl)methyl]-N,N-dimethylbenzenesulfonamide] | 0.3 | 50 | – | – | – | –
CCN(CC)C(=O)c1ccc([C@@H](c2ccccc2)N2C[C@H](C)N(Cc3cccc(F)c3)C[C@H]2C)cc1 [4-((alpha-R)-alpha-((2R,5 S)-2,5-Dimethyl-4-(3-fluorobenzyl)-1-piperazinyl)benzyl)-N,N-diethylbenzamide] | 0.4 | 75 | – | – | – | –
CCN(CC)C(=O)c1ccc([C@H](c2cccc(OC)c2)N2C[C@@H](C)N(Cc3ccc(F)cc3)C[C@@H]2C)cc1 [4-((alpha-R)-alpha-((2S,5R)-2,5-Dimethyl-4-(4-fluorobenzyl)-1-piperazinyl)-3-methoxybenzyl)-N,N-diethylbenzamide] | 3 | 38 | – | – | – | –
CCN(CC)C(=O)c1ccc([C@H](c2cccc(O)c2)N2C[C@@H](C)N(Cc3cccc(F)c3)C[C@@H]2C)cc1 [4-((alpha-R)-alpha-((2S,5R)-2,5-Dimethyl-4-(3-fluorobenzyl)-1-piperazinyl)-3-hydroxybenzyl)-N,N-diethylbenzamide] | 3 | 60 | – | – | – | –
